Results as given in patent US4288453A, “Derivatives of arylalkanoic acids, compositions and use” (Science Union et Cie, priority 1977, dated 1981).
Where a name gives a salt, the structure may show the parent alone.

What was measured:
Solubility (qualitative) = type: physicochemical; details: for solubility in sodium hydroxide / alkaline solutions: aqueous sodium hydroxide or alkaline solutions; for solubility in hydrochloric acid: (diluted) hydrochloric acid
[1] = pH of the aqueous solution; type: physicochemical; details: dissolved in the previously-calculated amount of sodium hydroxide
male mice (strain CD) = assay: Acute toxicity (LD50, Litchfield and Wilcoxon); type: in vivo; details: intraperitoneal, 8 days survey
From the text: The acute toxicity of these compounds has been determined on batches of male mice (strain CD) weighing about 20 g. They received the compounds to be tested at increasing doses either intraperitoneally or orally.
The animals are kept under survey for eight days. The deaths when present are numbered.
The average lethal dosage is graphically calculated according to the method of Litchfield and Wilcoxon.

Molecule	solubility in sodium hydroxide / alkaline solutions (Solubility (qualitative))	other results
CCC(OC(c1ccccc1)C(F)(F)F)C(=O)NO (stereo not drawn) [Example VI, α-(2,2,2-trifluoro-1-phenylethoxy)butyryl hydroxamic acid]	soluble in the previously-calculated amount of sodium hydroxide	
O=C(O)C(OC(c1ccccc1)C(F)(F)F)c1ccccc1 (racemic) [XVII, dl-2-(1-phenyl-2-trifluoroethoxy)phenyl acetic acid]	soluble in the dilute solutions of sodium hydroxide	
CCC(OC(c1cccc2ccccc12)C(F)(F)F)C(=O)O (racemic) [XXI, Dl-2-[(naphtyl-1)-2,2,2-trifluoroethoxy]butyric acid]	soluble in the previously-calculated amount of sodium hydroxide	pH value of the aqueous solution [1]: 7-8
CCC(OC(c1ccc(N2CCOCC2)cc1)C(F)(F)F)C(=O)O (racemic) [Example XV hydrochloride, dl-2-[1-(4-morpholinophenyl)-2-trifluoroethoxy]butyric acid]		solubility in water (Solubility (qualitative)): soluble in water
CCC(OC(c1ccc(N2CCCCC2)cc1)C(F)(F)F)C(=O)O (racemic) [Example XIV hydrochloride, dl-2-[1-(4-piperidinophenyl)-2-trifluoroethoxy]butyric acid]		solubility in water (Solubility (qualitative)): freely soluble in water
CCC(OC(c1ccc(Cl)cc1)C(F)(F)F)C(=O)O (single isomer, unassigned) [Example IX (acid, isomer β), α-[2,2,2-trifluoro-1-(p-chlorophenylethoxy]butyric acid (isomer β)]	soluble in the previously-calculated amount of sodium hydroxide	
CCC(OC(c1ccccc1)C(F)(F)F)C(=O)N1CCOCC1 (stereo not drawn) [Example VII, 4-[α-(2,2,2-trifluoro-1-phenylethoxy)butyryl]morpholine]		solubility in common organic solvents (Solubility (qualitative); common organic solvents): soluble in the common organic solvents; solubility in water (Solubility (qualitative)): insoluble in water
CCC(OC(c1ccc(OC)cc1)C(F)(F)F)C(=O)O (stereo not drawn) [Example V (4-methoxyphenyl), α-[2,2,2-trifluoro-1-(4-methoxyphenyl)ethoxy]butyric acid]	soluble in alkaline solutions	solubility in water (Solubility (qualitative)): insoluble in water
CCC(OC(c1ccccc1)C(F)(F)F)C(=O)O (stereo not drawn) [Example II, α-(2,2,2-trifluoro-1-phenyl-1-ethoxy)butyric acid]	soluble in the previously-calculated amount of sodium hydroxide in aqueous solution	
CCC(OC(c1ccc(N2CCCCCC2)cc1)C(F)(F)F)C(=O)O (racemic) [XXIV, dl-2-[[4-(1-hexamethyleneimino)phenyl]-2,2,2-trifluoroethoxy] butyric acid]	soluble in the dilute aqueous solutions of sodium hydroxide	solubility in hydrochloric acid (Solubility (qualitative)): insoluble in diluted hydrochloric acid
CCC(OC(c1ccc(N2CCCCCCC2)cc1)C(F)(F)F)C(=O)O (racemic) [XXV, dl-2-[[4-(heptamethyleneimino-1)phenyl-2,2,2-trifluoroethoxy)] butyric acid]	soluble in the aqueous solutions of sodium hydroxide	solubility in hydrochloric acid (Solubility (qualitative)): insoluble in hydrochloric acid
CCC(OC(c1cccs1)C(F)(F)F)C(=O)O (racemic) [XVIII, dl-2-[1-(thienyl-2)-2,2,2-trifluoroethoxy]butyric acid]	soluble in dilute solutions of sodium hydroxide	
CCC(OC(c1ccc(Cl)cc1)C(F)(F)F)C(=O)O (stereo not drawn) [Example V (1), α-[2,2,2-trifluoro-1-(4-chlorophenyl)ethoxy]butyric acid]	soluble in an aqueous solution of sodium hydroxide	
CCC(OC(c1ccc2ccccc2c1)C(F)(F)F)C(=O)O (racemic) [XXII, dl-2-[1-(naphtyl-2)-2,2,2-trifluoroethoxy]butyric acid]	soluble in the previously-calculated amount of sodium hydroxide	
CCC(OC(c1ccccc1)C(F)(F)F)C(=O)N1CCCCC1 (stereo not drawn) [VIII, 1-[α-(2,2,2-trifluoro-1-phenylethoxy)butyryl]piperidine]		solubility in water (Solubility (qualitative)): insoluble in water
CC(OC(c1ccccc1)C(F)(F)F)C(=O)O (racemic) [IV, dl-α-(2,2,2-trifluoro-1-phenylethoxy)propionic acid]	dissolves in the stoichiometric amount of sodium hydroxide	
CCC(OC(c1ccc(Oc2ccc(Cl)cc2)cc1)C(F)(F)F)C(=O)O (racemic) [XII, dl-2-[1-(4-chlorophenoxyphenyl)-2,2,2-trifluoroethoxy]butyric acid]	soluble in dilute sodium hydroxide solutions	
dl-2-[1-(p-chlorophenylethoxy)-2,2,2-trifluoroethoxy] butyric acid		mean lethal dose (LD50) (male mice (strain CD)): about 400 mg/kg
